Measurements published in ChEMBL document CHEMBL2203269, “Target-Activated Prodrugs (TAPs) for the Autoregulated Inhibition of MMP12” (ACS Med Chem Lett, 2012).
Calls of active or inactive are those of the source. No cut-off for these calls is given here.

Tests used:
[1] = target: T1, Interstitial collagenase (Homo sapiens) (UniProt P03956); assay: Activity at MMP1
T1 sequence (whole entry): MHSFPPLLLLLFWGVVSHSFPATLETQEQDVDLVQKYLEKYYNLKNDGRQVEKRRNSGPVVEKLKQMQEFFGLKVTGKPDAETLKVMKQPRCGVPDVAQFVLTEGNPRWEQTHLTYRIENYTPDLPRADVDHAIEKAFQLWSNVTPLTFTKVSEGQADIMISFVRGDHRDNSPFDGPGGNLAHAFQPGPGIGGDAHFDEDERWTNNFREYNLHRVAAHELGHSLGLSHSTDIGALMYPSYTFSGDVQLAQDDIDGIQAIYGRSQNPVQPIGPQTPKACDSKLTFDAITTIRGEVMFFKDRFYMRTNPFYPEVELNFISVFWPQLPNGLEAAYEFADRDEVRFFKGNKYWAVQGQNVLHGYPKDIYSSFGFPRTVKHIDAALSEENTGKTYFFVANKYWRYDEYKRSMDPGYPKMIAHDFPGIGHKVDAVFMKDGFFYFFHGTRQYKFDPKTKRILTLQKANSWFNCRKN

[2] = target: 72 kDa type IV collagenase (Homo sapiens) (UniProt P08253); assay: Activity at MMP2
[3] = target: T2, Matrilysin (Homo sapiens) (UniProt P09237); assay: Activity at MMP7
T2 sequence (whole entry): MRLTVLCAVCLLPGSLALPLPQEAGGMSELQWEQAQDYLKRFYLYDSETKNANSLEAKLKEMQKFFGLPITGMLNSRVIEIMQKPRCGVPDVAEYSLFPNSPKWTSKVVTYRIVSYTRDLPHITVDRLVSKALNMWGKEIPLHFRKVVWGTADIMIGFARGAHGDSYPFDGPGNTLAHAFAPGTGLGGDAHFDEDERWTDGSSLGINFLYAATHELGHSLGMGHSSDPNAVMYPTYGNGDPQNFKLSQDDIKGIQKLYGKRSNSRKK

Chain of 72 kDa type IV collagenase (Homo sapiens) (P08253 110-660 limits assumed): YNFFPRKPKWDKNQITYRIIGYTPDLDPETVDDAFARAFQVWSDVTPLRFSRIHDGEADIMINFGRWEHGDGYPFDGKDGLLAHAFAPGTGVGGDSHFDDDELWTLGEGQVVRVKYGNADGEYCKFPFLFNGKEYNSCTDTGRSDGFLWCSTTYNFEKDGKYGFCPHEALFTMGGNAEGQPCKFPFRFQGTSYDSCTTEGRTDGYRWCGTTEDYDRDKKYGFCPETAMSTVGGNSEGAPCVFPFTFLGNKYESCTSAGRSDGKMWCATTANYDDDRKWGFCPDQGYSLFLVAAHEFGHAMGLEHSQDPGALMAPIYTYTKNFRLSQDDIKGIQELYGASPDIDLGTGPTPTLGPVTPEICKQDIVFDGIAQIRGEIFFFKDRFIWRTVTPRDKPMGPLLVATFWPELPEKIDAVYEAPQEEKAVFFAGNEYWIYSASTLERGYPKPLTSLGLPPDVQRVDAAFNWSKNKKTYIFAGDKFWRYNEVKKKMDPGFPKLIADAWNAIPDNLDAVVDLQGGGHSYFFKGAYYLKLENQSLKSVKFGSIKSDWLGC

Activity [1]: Active
Activity [2]: Active
Activity [3]: Active
SMILES: CC(C)C[C@H](NC(=O)CN(C(=O)[C@H](CC(C)C)NC(=O)[C@@H]1CCCN1C(=O)OCc1ccccc1)S(=O)(=O)c1ccc(-c2ccccc2)cc1)C(=O)N[C@@H](CCC(=O)O)C(=O)N[C@@H](CCC(=O)O)C(=O)N[C@@H](C)C(N)=O
